Here are results for nine molecules from PubChem BioAssay (NCI).

Test systems include LOX IMVI melanoma; SK-OV-3 ovarian; OVCAR-8 ovarian; SN12C renal; KM12 colon; SK-MEL-2 melanoma; NCI-H522 lung; MOLT-4 leukemia; NCI-H23 lung; SNB-75 CNS.
Experiment in all cases: NCI tumour cell line growth inhibition, 48 h

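Five concentrations, 48 hours, 96-well plates. At the GI50, growth is halved. TGI denotes the concentration required for complete inhibition of growth.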

For `C=C1C(=O)O[C@H]2[C@H]1CC/C(COC(=O)NCC(C)c1ccc(CC(C)C)cc1)=C\CC[C@@]1(C)O[C@@H]21` (some centres undefined), the GI50 in the test on LOX IMVI melanoma was 0.506 µM; in the test on SK-OV-3 ovarian it was 5.94 µM; with OVCAR-8 ovarian, 1.94 µM; with SN12C renal, 1.06 µM; with KM12 colon, 3.53 µM; in the test with SK-MEL-2 melanoma, 3.86 µM. Besides, the GI50 with NCI-H522 lung was 0.661 µM; with MOLT-4 leukemia, 0.974 µM; in the test with NCI-H23 lung, 3.69 µM; in the test on SNB-75 CNS it was 1.21 µM. Moreover, the TGI with LOX IMVI melanoma came out at 1 µM; in the test with SK-OV-3 ovarian it was 11 µM; in the test with OVCAR-8 ovarian, 6.87 µM; in the test with SN12C renal it was 4.14 µM; in the test with KM12 colon, 8.24 µM; in the test on SK-MEL-2 melanoma it was 8.48 µM. For the same molecule, the TGI in the test on NCI-H522 lung is 1.77 µM; in the test on MOLT-4 leukemia it was 3.05 µM; in the test on NCI-H23 lung, 8.69 µM; in the test on SNB-75 CNS, 5.48 µM.
For `CC(C)(C)OC(=O)NCCCCCCCn1c2c(c3ccccc3c1=O)C(=O)c1ccccc1-2`, the GI50 was 65.2 µM with LOX IMVI melanoma; 31.6 µM in the test with SK-OV-3 ovarian; 21.5 µM in the test with OVCAR-8 ovarian; 73.7 µM in the test with SN12C renal; 60.6 µM with KM12 colon; 36.6 µM with SK-MEL-2 melanoma. Moreover, the GI50 with NCI-H522 lung was 26.4 µM; with MOLT-4 leukemia, 25.6 µM; in the test on NCI-H23 lung, 26 µM; in the test with SNB-75 CNS it was 21.5 µM. In addition, the TGI with LOX IMVI melanoma, in the test with SK-OV-3 ovarian, in the test on OVCAR-8 ovarian, in the test with SN12C renal, with KM12 colon and with SK-MEL-2 melanoma was over 100 µM each time. The TGI in the test on NCI-H522 lung was over 100 µM; in the test with MOLT-4 leukemia, over 100 µM; in the test on NCI-H23 lung, over 100 µM; in the test on SNB-75 CNS it was 49.7 µM.
As for `CC(=O)N1CCC2(c3ccccc3N(C(C)=O)C2c2ccc(O)cc2)C1C(=O)O` (centres undefined), the TGI with LOX IMVI melanoma, with SK-OV-3 ovarian, in the test with OVCAR-8 ovarian, in the test on SN12C renal, in the test on KM12 colon and in the test on SK-MEL-2 melanoma was over 100 µM throughout. The TGI in the test with NCI-H522 lung, with MOLT-4 leukemia, in the test with NCI-H23 lung and with SNB-75 CNS was over 100 µM throughout.
Consider `CCOC(=O)C(NC(=O)c1nc[nH]c1[N+](=O)[O-])C(C)C` (centres undefined), for which the TGI in the test on LOX IMVI melanoma, in the test with SK-OV-3 ovarian, with OVCAR-8 ovarian, in the test on SN12C renal, with KM12 colon and with SK-MEL-2 melanoma was over 100 µM each time. In addition, the TGI in the test on NCI-H522 lung, in the test with MOLT-4 leukemia, with NCI-H23 lung and with SNB-75 CNS was over 100 µM each time.
In the case of `Cc1ccc(NC(=O)c2cc(S(=O)(=O)N3C(=O)NC(=O)NS3(=O)=O)c(S)cc2Cl)cc1`, the GI50 in the test on LOX IMVI melanoma was 20.7 µM; in the test on SK-OV-3 ovarian, 67.8 µM; with OVCAR-8 ovarian, 30.7 µM; in the test with SN12C renal, 31.2 µM; in the test with KM12 colon it was 22.2 µM; in the test on SK-MEL-2 melanoma it was 28.3 µM. Moreover, the GI50 with NCI-H522 lung is 36.1 µM; with MOLT-4 leukemia, 15.3 µM; in the test with NCI-H23 lung, 32.3 µM; in the test with SNB-75 CNS, 91.6 µM. Further, the TGI with LOX IMVI melanoma is 56.1 µM; in the test with SK-OV-3 ovarian, over 100 µM; in the test on OVCAR-8 ovarian it was 90.6 µM; with SN12C renal it was over 100 µM; in the test with KM12 colon, 52.2 µM; with SK-MEL-2 melanoma it was 85.3 µM. The TGI in the test on NCI-H522 lung is over 100 µM; in the test on MOLT-4 leukemia, 44 µM; in the test on NCI-H23 lung it was 99.6 µM; in the test with SNB-75 CNS, over 100 µM.
As to `Cc1cc(N(CCC#N)CCC#N)ccc1/C=C(\NC(=O)/C=C/c1ccccc1)C(=O)NN`, the TGI in the test with LOX IMVI melanoma is over 100 µM; with SK-OV-3 ovarian it was over 82.6 µM; in the test on OVCAR-8 ovarian it was over 100 µM; with SN12C renal, over 100 µM; in the test with KM12 colon, over 100 µM; in the test with SK-MEL-2 melanoma, over 100 µM. Also, the TGI was over 100 µM with NCI-H522 lung, over 100 µM in the test with MOLT-4 leukemia, over 100 µM with NCI-H23 lung and over 62.9 µM with SNB-75 CNS.
As to `CCN(C(=O)/C=C/c1ccco1)c1ccccc1`, the TGI with LOX IMVI melanoma, in the test with SK-OV-3 ovarian, with OVCAR-8 ovarian, with SN12C renal, with KM12 colon and in the test with SK-MEL-2 melanoma was over 100 µM throughout. The TGI in the test with NCI-H522 lung, with MOLT-4 leukemia, in the test on NCI-H23 lung and with SNB-75 CNS was over 100 µM throughout.
As to `CC(NC(=O)N(C)C)NC(=O)N(C)C`, the TGI with LOX IMVI melanoma, in the test with SK-OV-3 ovarian, in the test with OVCAR-8 ovarian, with SN12C renal, with KM12 colon and in the test on SK-MEL-2 melanoma was over 10 µM throughout. Moreover, the TGI in the test with NCI-H522 lung, in the test on MOLT-4 leukemia, with NCI-H23 lung and in the test with SNB-75 CNS was over 10 µM throughout.
On to `C=C1C[C@@H]2CC[C@@]34C[C@H]5O[C@H]6[C@@H](O3)[C@H]3O[C@H](CC[C@@H]3O[C@H]6[C@@H]5O4)CC(=O)C[C@@H]3[C@@H](OC)[C@@H](C[C@H](O)CN)O[C@H]3C[C@H]3O[C@@H](CC[C@@H]1O2)C[C@@H](C)C3=C`, for which the GI50 with LOX IMVI melanoma was under 0.01 µM; with OVCAR-8 ovarian it was under 0.0153 µM; with SN12C renal, under 0.01 µM; in the test on KM12 colon it was under 0.01 µM; in the test with SK-MEL-2 melanoma, under 0.01 µM; in the test with NCI-H522 lung, under 0.01 µM. Besides, the GI50 in the test on MOLT-4 leukemia, in the test with NCI-H23 lung and in the test with SNB-75 CNS was under 0.01 µM throughout. For the same molecule, the TGI is 0.99 µM with LOX IMVI melanoma; over 100 µM in the test with SK-OV-3 ovarian; over 100 µM in the test on OVCAR-8 ovarian; over 100 µM in the test with SN12C renal; over 100 µM in the test with KM12 colon; over 100 µM in the test with SK-MEL-2 melanoma. The TGI in the test on NCI-H522 lung is 11.8 µM; with MOLT-4 leukemia, over 100 µM; in the test with NCI-H23 lung, over 100 µM; with SNB-75 CNS, over 100 µM.
